One test concerns U-87 MG. Put plainly: Antitumor activity against human U-87 MG cells stably expressing luciferase reporter xenografted in female athymic nude mouse assessed as median survival time at 24 mg/kg, iv administered for six times starting from day 12 post tumor development and measured upto 60 days post tumor development. It counts as functional, U-87MG ATCC. The note with it: time <= 48 day. Background: In xenograft studies the graft and the host belong to different species.

Test [1] can be described thus: Antiproliferative activity against human GBM43 cells cultured under pH 6.5 assessed as reduction in cell viability by measuring growth inhibition incubated for 48 hrs by MTT assay. It counts as functional.
Test [2] is described as follows: Antiproliferative activity against human GBM43 cells cultured under pH 7.5 assessed as reduction in cell viability by measuring growth inhibition incubated for 48 hrs by MTT assay. It counts as functional. For orientation: Tetrazolium assays rely on reduction of a dye to a coloured formazan, in cell work by metabolically active cells.
Test [3] is described as follows: Potency index, ratio of ophiobolin A GI50 to test compound GI50 for antiproliferative activity against human GBM43 cells cultured under pH 6.5 assessed as reduction in cell viability by measuring growth inhibition incubated for 48 hrs by MTT assay. It counts as functional.

Here are results for 13 molecules from ChEMBL document CHEMBL5579845, “Ophiobolin A derivatives with enhanced activities under tumor-relevant acidic conditions” (2024).

As for `COc1cccc2c1C(=O)c1c(O)c3c(c(O)c1C2=O)C[C@@](O)(/C(CO)=N/NC(=O)CCCCCN1C(=O)C=CC1=O)C[C@@H]3O[C@H]1C[C@H](N)[C@H](O)[C@H](C)O1` [ALDOXORUBICIN], in the test on U-87 MG, the MST came out at 62 days.
As a reminder, the GI50 is the concentration at which growth is held to half of that of the control. For `CC(C)=C[C@H]1C[C@H](C)[C@]2(CC[C@]3(C)C[C@H]4[C@H](C(=O)C[C@@]4(C)O)/C(C(O)OCCCl)=C\C[C@H]32)O1` (some centres not stated), the GI50 in test [1] worked out at 750 nM; in test [2], 2770 nM.
In the case of `CO[C@@H]1O[C@@]2(OC)C[C@@](C)(O)[C@H]3C[C@@]4(C)CC[C@@]5(O[C@@H](C=C(C)C)C[C@@H]5C)[C@@H]4C/C=C/1[C@H]32`, in test [1], the concentration for 50% growth inhibition (GI50) was 1460 nM.
On to `CC(C)=C[C@H]1C[C@H](C)[C@]2(CC[C@]3(C)C[C@H]4[C@H](C(=O)C[C@@]4(C)O)/C(C(O)OCCF)=C\C[C@H]32)O1` (some centres not stated), for which the GI50 in test [1] is 1700 nM; in test [2], 2890 nM.
In the same order, the values of `CC(C)=C[C@H]1C[C@H](C)[C@]2(CC[C@]3(C)C[C@H]4[C@H](C(=O)C[C@@]4(C)O)/C(C=O)=C\C[C@H]32)O1` [OPHIOBOLIN A] are 290 nM and 220 nM.
Turning to `CC(C)=C[C@H]1C[C@H](C)[C@]2(CC[C@]3(C)C[C@H]4[C@H](C(=O)C[C@@]4(C)O)/C(=C/OCCBr)[C@H](O)C[C@H]32)O1`, in test [3], the RatioGI50 worked out at 2. Besides, the GI50 in test [1] worked out at 140 nM; in test [2] it was 490 nM.
`CC(C)=C[C@H]1C[C@H](C)[C@]2(CC[C@]3(C)C[C@H]4[C@H](C(=O)C[C@@]4(C)O)/C(C(O)OC(C)C)=C\C[C@H]32)O1` (some centres not stated): in test [1], the GI50 amounted to 340 nM.
Same read-out and setting: for `CO[C@H]1O[C@@]2(OC)C[C@@](C)(O)[C@H]3C[C@@]4(C)CC[C@@]5(O[C@@H](C=C(C)C)C[C@@H]5C)[C@@H]4C/C=C/1[C@H]32` the value was 500 nM; for `COCCOC(O)/C1=C/C[C@@H]2[C@](C)(CC[C@@]23O[C@@H](C=C(C)C)C[C@@H]3C)C[C@H]2[C@@H]1C(=O)C[C@@]2(C)O` (some centres not stated), 1090 nM; for `CC(C)=C[C@H]1C[C@H](C)[C@]2(CC[C@]3(C)C[C@H]4[C@H](C(=O)C[C@@]4(C)O)/C(=C/OCC(F)(F)F)[C@H](O)C[C@H]32)O1`, 830 nM.
Take `CC(C)=C[C@H]1C[C@H](C)[C@]2(CC[C@]3(C)C[C@H]4[C@H](C(=O)C[C@@]4(C)O)/C(C(O)OCCBr)=C\C[C@H]32)O1` (some centres not stated): the RatioGI50 in test [3] is recorded as 2. Further, the GI50 amounted to 150 nM in test [1] and 270 nM in test [2].
With `CC(C)=C[C@H]1C[C@H](C)[C@]2(CC[C@]3(C)C[C@H]4[C@H](C(=O)C[C@@]4(C)O)/C(=C/OCCCl)[C@H](O)C[C@H]32)O1`, the GI50 in test [1] came to 650 nM; in test [2], 1070 nM.
On the same counts, the results for `CC(C)=C[C@H]1C[C@H](C)[C@]2(CC[C@]3(C)C[C@H]4[C@H](C(=O)C[C@@]4(C)O)/C(=C/OCCF)[C@H](O)C[C@H]32)O1` are 1500 nM and 2770 nM.
